Data on 5 compounds can be found in patent US12180193B2, “Accelerating fibrosarcoma protein degrading compounds and associated methods of use” (Arvinas Operations, Inc., priority 2020, dated 2024).

For one experiment, the target named is T1, BRAF V600E (Homo sapiens, UniProt P15056, V600E).
T1 construct: expressed in transfected cells
As to the kind of experiment: Cellular assay of target protein degradation, T-Rex 293 cells stably transfected with HA-BRAF_V600E (HA immunofluorescence, high content imaging). Type of experiment: cell-based. To be noted: T-Rex 293 HA-BRAF V600E; for DC50: half maximal degradation, read-out: BRaf V600E DC50; for Dmax: maximum degradation observed. In outline:
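Cells are plated with 1 ng/mL doxycycline and grown 24 h. Compound is then added (final 1 μM–0.1 nM, 0.1% DMSO) for another 24 h at 37 °C, followed by fixing, HA immunostaining and imaging to obtain DC50 and Dmax.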

The target of a further experiment is T2, BRAF G466V (Homo sapiens, UniProt P15056, G466V).
T2 construct: expressed in transfected cells
Kind of experiment: Cellular assay of target protein degradation, T-Rex 293 cells stably transfected with HA-BRAF G466V (HA immunofluorescence, high content imaging). To be noted: T-Rex 293 HA-BRAF G466V; for DC50: half maximal degradation, read-out: BRaf G466V DC50; for Dmax: maximum degradation observed. Type of experiment: cell-based. In outline: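 Read-out is HA immunofluorescence by high content imaging, with Hoechst and phalloidin co-staining, giving DC50 and Dmax as a percentage of control. Compound exposure lasts 24 hours at 37° C over 30 nM to 3 pM in 0.1% DMSO, with doxycycline-induced HA-BRAF G466V.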

A value given as a limit tells only on which side of the number the result lay.

One may read the DC50 as the concentration at which degradation of the target reaches its halfway point. In general, Dmax refers to the largest share of the target that was removed. A low value points to a partial loss of target.

T2 sequence (P15056 whole entry G466V): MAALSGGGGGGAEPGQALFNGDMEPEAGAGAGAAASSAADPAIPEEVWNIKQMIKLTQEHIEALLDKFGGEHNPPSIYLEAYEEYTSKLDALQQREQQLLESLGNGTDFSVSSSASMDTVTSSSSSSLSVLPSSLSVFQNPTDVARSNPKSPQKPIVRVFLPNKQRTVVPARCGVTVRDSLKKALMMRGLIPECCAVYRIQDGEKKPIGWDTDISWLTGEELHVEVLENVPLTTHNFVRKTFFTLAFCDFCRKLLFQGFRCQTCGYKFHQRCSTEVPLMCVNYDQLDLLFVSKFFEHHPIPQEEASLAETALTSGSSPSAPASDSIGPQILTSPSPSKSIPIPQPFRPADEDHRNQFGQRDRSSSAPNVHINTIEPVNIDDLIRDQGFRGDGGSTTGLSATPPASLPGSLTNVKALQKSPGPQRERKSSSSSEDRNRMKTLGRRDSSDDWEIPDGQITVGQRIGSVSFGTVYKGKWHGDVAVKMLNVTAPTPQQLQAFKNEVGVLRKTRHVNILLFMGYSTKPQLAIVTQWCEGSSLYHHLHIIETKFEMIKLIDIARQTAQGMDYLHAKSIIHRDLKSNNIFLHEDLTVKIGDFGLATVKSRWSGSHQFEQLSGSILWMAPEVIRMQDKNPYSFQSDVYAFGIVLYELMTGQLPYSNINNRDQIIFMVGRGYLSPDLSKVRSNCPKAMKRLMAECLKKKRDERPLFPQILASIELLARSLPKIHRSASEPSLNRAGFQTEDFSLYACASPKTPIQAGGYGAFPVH
T1 sequence (P15056 whole entry V600E): as the sequence (P15056 whole entry G466V) above, with V466G, V600E counted along it

`O=C1CC[C@H](N2Cc3cc(N4CCC(CN5CCN(c6ccc(-c7cnc8[nH]cc(C(=O)c9c(F)ccc(NS(=O)(=O)N%10CC[C@@H](F)C%10)c9F)c8c7)cc6)CC5)CC4)ccc3C2=O)C(=O)N1` [Compound 223, (3R)-N-{3-[5-(4-{4-[(1-{2-[(3S)-2,6-dioxopiperidin-3-yl]-1-oxo-2,3-dihydro-1H-isoindol-5-yl}piperidin-4-yl)methyl]piperazin-1-yl}phenyl)-1H-pyrrolo [2,3-b]pyridine-3-carbonyl]-2,4-difluorophenyl}-3-fluoropyrrolidine-1-sulfonamide]: on BRAF V600E, the DC50 lay in the range of 5 to 50 nM and the Dmax is 35 to 70%. In addition, on BRAF G466V, the DC50 is 1 to 10 nM and the Dmax is above 70%.

Turning to `O=C1CC[C@@H](N2Cc3cc(N4CCC(CN5CCN(c6ccc(-c7cnc8[nH]cc(C(=O)c9c(F)ccc(NS(=O)(=O)N%10CC[C@@H](F)C%10)c9F)c8c7)cc6)CC5)CC4)ccc3C2=O)C(=O)N1` [Compound 224, (3R)-N-{3-[5-(4-{4-[(1-{2-[(3R)-2,6-dioxopiperidin-3-yl]-1-oxo-2,3-dihydro-1H-isoindol-5-yl}piperidin-4-yl)methyl]piperazin-1-yl}phenyl)-1H-pyrrolo [2,3-b]pyridine-3-carbonyl]-2,4-difluorophenyl}-3-fluoropyrrolidine-1-sulfonamide], at BRAF V600E, the DC50 lay within 5 to 50 nM and the Dmax was in the range of 35 to 70%. In addition, on BRAF G466V, the DC50 fell in the range of 1 to 10 nM and the Dmax is above 70%.

In the case of `COc1cc(N2CCC(CN3CC4(C3)CN(c3ccc(-c5cnc6[nH]cc(C(=O)c7c(F)ccc(NS(=O)(=O)N8CC[C@@H](F)C8)c7F)c6c5)cc3)C4)CC2)cc2c1C(=O)N([C@@H]1CCC(=O)NC1=O)C2` [Compound 225, (3R)-N-{3-[5-(4-{6-[(1-{2-[(3R)-2,6-dioxopiperidin-3-yl]-7-methoxy-1-oxo-2,3-dihydro-1H-isoindol-5-yl}piperidin-4-yl)methyl]-2,6-diazaspiro[3.3]heptan-2-yl}phenyl)-1H-pyrrolo[2,3-b]pyridine-3-carbonyl]-2,4-difluorophenyl}-3-fluoropyrrolidine-1-sulfonamide], at BRAF V600E, the DC50 fell in the range of 5 to 50 nM and the Dmax was in the range of 35 to 70%. At BRAF G466V, the DC50 was 1 to 10 nM and the Dmax is above 70%.

Turning to `COc1cc(N2CCC(CN3CC4(C3)CN(c3ccc(-c5cnc6[nH]cc(C(=O)c7c(F)ccc(NS(=O)(=O)N8CC[C@@H](F)C8)c7F)c6c5)cc3)C4)CC2)cc2c1C(=O)N([C@H]1CCC(=O)NC1=O)C2` [Compound 226, (3R)-N-{3-[5-(4-{6-[(1-{2-[(3S)-2,6-dioxopiperidin-3-yl]-7-methoxy-1-oxo-2,3-dihydro-1H-isoindol-5-yl}piperidin-4-yl)methyl]-2,6-diazaspiro[3.3]heptan-2-yl}phenyl)-1H-pyrrolo[2,3-b]pyridine-3-carbonyl]-2,4-difluorophenyl}-3-fluoropyrrolidine-1-sulfonamide], at BRAF V600E, the DC50 is 5 to 50 nM and the Dmax was below 35%. For the same compound, on BRAF G466V, the DC50 is 1 to 10 nM and the maximal degradation (Dmax) was above 70%.

In the case of `O=C1CCC(N2Cc3cc(N4CC(C5CN(CC6CCN(c7ccc(-c8cnc9[nH]cc(C(=O)c%10c(F)ccc(NS(=O)(=O)N%11CC[C@@H](F)C%11)c%10F)c9c8)cc7)CC6)C5)C4)ccc3C2=O)C(=O)N1` (stereo partly drawn) [Compound 227, (3R)-N-[3-(5-{4-[4-({1′-[2-(2,6-dioxopiperidin-3-yl)-1-oxo-2,3-dihydro-1H-isoindol-5-yl]-[3,3′-biazetidin]-1-yl}methyl)piperidin-1-yl]phenyl}-1H-pyrrolo[2,3-b]pyridine-3-carbonyl)-2,4-difluorophenyl]-3-fluoropyrrolidine-1-sulfonamide], at BRAF V600E, the DC50 was in the range of 5 to 50 nM and the Dmax is below 35%. Besides, on BRAF G466V, the DC50 is 1 to 10 nM and the Dmax is above 70%.
